Experimental data as given in patent publication US5470873A, “Diabetes prevention and treatment using gamma-pyrones” (University Technologies International, Inc., priority 1994, dated 1995).

Key:
[1] = immunosuppressive therapy, humans; cited from earlier work
[2] = oral; flavoring agents for foods; cited from earlier work
[3] = Prevention of clinical diabetes (glycosuria) in NOD mice; assay type: in vivo
Method: (§1) NOD mice were dosed with maltol to evaluate its effect on the pathogenesis of type I diabetes. Mice received 5 mg maltol/mouse every other day from age 2 weeks until they were 20 weeks old. Maltol extracted from ginseng as described in Example 2 was used for the first 10 weeks, then maltol purchased from Sigma Co., St. Louis, MO was used thereafter. The mice were kept until they were 35 weeks old. Urine glucose was measured at 3-day intervals from 10 to 35 weeks of age. Urinary glucose and ketone levels were determined using Diastix and Ketostix reagent slips (Miles, Ontario, Canada). Individual mice were classified as being diabetic on the basis of positive glycosuria^38. […] In contrast, 78% of age-matched control mice (22 mice) spontaneously developed autoimmune diabetes. At 35 weeks of age, fasting (8 hours of fasting) and non-fasting blood glucose levels were measured. Blood was obtained from the retro-orbital venous plexus of fasting and nonfasting NOD mice. Glucose levels were measured enzymatically by the glucose oxidase method with o-dianisidine dihydrochloride as the reactive dye ^39-41 . The mean nonfasting blood glucose level of 35 ICR mice (nondiabetic control mice; NOD mice were derived from ICR mice) was 149±27 mg/dl. Any non-fasting mouse with a blood glucose level greater than 230 mg/dl (3 SD above the mean) was scored as diabetic. The mean fasting blood glucose level of 38 ICR mice was 137±28 mg/dl. Any fasting mouse with a blood glucose level greater than 221 mg/dl (3 SD above the mean) was scored as diabetic.

[4] = Blood glucose levels in NOD mice (glucose oxidase method); assay type: in vivo; conditions: 35 weeks of age
Method: as §1

[5] = Pancreatic insulin content (immunoreactive insulin, radioimmunoassay) in NOD mice; assay type: in vivo
Method: Insulin was extracted from the pancreas of non-obese diabetic (NOD) mouse by known methods ^33,34. Briefly, deep frozen pancreatic tissue (50% of each pancreas) was placed into phosphate buffered saline (PBS) and then extraction solution A (380 ml absolute alcohol, 20 ml H2 O, 8 ml concentrated HCl and some drops of alcoholic phenol red) was added. This mixture was homogenized with polytron type PT 10-20-[…] in glass tubes (15×125 mm) for 30 seconds in position 5. The homogenized material in the tubes was incubated at 4° C. for 10 hours. At the end of the incubation period, the homogenized material was centrifuged at 800 g for 5 minutes for clarification. The supernatant was saved. The pellet was re-extracted with 1 ml of extraction solution B (356 ml absolute alcohol, 124 ml H2 O and 7.5 ml HCl). The pellet in extraction solution B was incubated for 4 hours at 4° C. and then homogenized with a polytron as described above. The homogenized material was centrifuged at 800 g for 5 minutes. The supernatant was pooled with the supernatant from the first extraction. The pooled supernatant was neutralized with concentrated NH40 H (about 10 μl ) until the phenol red turned to purple. The neutralized supernatant was precipitated at 4° C. and then centrifuged at 800 g for 5 min. The supernatant, which contains insulin, was used for the measurement of insulin by radioimmunoassay. The concentration of immunoreactive insulin (IRI) in the pancreas from DPD-treated and untreated NOD mice was measured by radioimmunoassay techniques ^42-44 using mouse insulin as a standard. Briefly, the extracted samples from NOD mice were mixed with […], and anti-insulin antibody. The mixed materials were incubated for 2 hours at room temperature. At the end of the incubation period, anti-guinea pig IgG raised in sheep was added and the mixture was incubated for 30 minutes at room temperature. At the end of the incubation, the samples were centrifuged at 1500 g for 10 minutes. The supernatant was completely removed. The radioactivity of the pellets was measured. The percent of activity was determined by the following formula: [formula] On the basis of % activity in standards, a standard curve was constructed. The concentration of each unknown sample from maltol-treated or untreated NOD pancreas was read on the basis of the standard curve. […] The maltol-treated mice have insulin levels that are similar to the non-diabetic, untreated animals. About 75% of the maltol-treated mice have insulin levels over 80 μg/g pancreas and about 25% have insulin levels between 55-75 μg/g pancreas.

[6] = Inhibition of hydrogen peroxide induced free radical production (luminol chemiluminescence); assay type: biochemical; conditions: for Chemiluminescence: 3 μM luminol, 20 μl H2O2, without maltol 11845.0 ± 1414.0
Method: One of the possible mechanisms for the destruction of pancreatic beta cells in autoimmune Type I diabetes is their damage by free radicals and cytokines released from macrophages and T lymphocytes. It is hypothesized that maltol can inhibit the action of these released radicals and thus prevent Type I diabetes. We measured the effect of maltol on the inhibition of free radicals produced by hydrogen peroxide.
Chemiluminescence produced by hydrogen peroxide was measured using a liquid scintillation counter (LKB 1217/1217 Rack Beta) set to the tritium channel. Briefly, luminol (5-amino-2,3-dihydro-l,4-phthalazinedione) was dissolved in dimethylsulfoxide and diluted with Krebs-Ringer bicarbonate buffer (pH 7.4) containing […] Hepes and no glucose. The final concentration of dimethylsulfoxide was 0.06 μl/ml. Under these assay conditions, 3 μM luminol and various amounts of hydrogen peroxide ranging from 5-20μl were mixed with 5 ml of Krebs-Ringer bicarbonate buffer, with or without maltol. Chemiluminescence was measured for a 30 second period beginning at 20 seconds after the addition of hydrogen peroxide.

pancreatic islets = assay: Histologic changes of pancreatic islets (hematoxylin and eosin); assay type: in vivo, NOD mice; conditions: compared to untreated, diabetic NOD mice
Text: Maltol-treated and untreated NOD mice were sacrificed and 25% of each pancreas was fixed in 6% Formalin. Paraffin-embedded sections were stained with hematoxylin and eosin and examined under an Olympus light microscope ^49. To see whether there are any histological differences between the pancreatic islets of DPD-treated and untreated NOD mice, the pancreatic islets of 35 week old mice were examined with the light microscope after staining with hematoxylin and eosin. […] The rest of their islets were rated as having either severe (22%), moderate (27%), mild (25%) or no (6%) insulitis. […] In addition, there were histopathological changes in their pancreatic islets that were rated as moderate (22% of examined islets), mild (30%) or as having no insulitis (15%).

pancreatic beta cells = assay: Destruction of pancreatic beta cells detected by fluorescein labelled anti-insulin antibody; assay type: in vivo, NOD mice; conditions: compared to untreated, diabetic NOD mice
Method: Fluorescein isothiocyanate-labelled anti-insulin antibody was prepared as described previously 45. Briefly, gamma globulin that was prepared by immunizing guinea pigs with glutaraldehyde polymerized porcine insulin and purified by Sephadex G-200 chromatography was purchased from Index Corp., Glenwood, Ill, USA. This material was labelled with FITC. Unconjugated FITC was removed by dialysis against 0.01M PBS (pH 7.5) and by gel filtration through a Sephadex G-25. The labelled gamma globulin was subsequently absorbed with acetone-treated mouse liver powder to eliminate nonspecific fluorescence. Pancreatic sections (from 25% of each pancreas) prepared from maltol-treated and untreated NOD mice were stained with FITC-labelled anti-insulin antibody and examined under a fluorescent microscope as described elsewhere 47.48. Briefly, pancreatic sections on the slides were flooded with FITC-labelled anti-insulin antibody and incubated in a humidity chamber overnight at 4° C. in the dark. The slides were then washed in three changes of cold PBS for a total of 20 min to remove any unattached antibody, mounted with Elvanol and observed with an Olympus fluorescence microscope ^45. As it is difficult to determine whether the lymphocytes observed in the pancreatic islets are contributing to beta cell destruction, another method was used to determine whether beta cells from maltol-treated or untreated NOD mice were destroyed or not. Sections of pancreatic islets were stained with a fluorescein-labelled anti-insulin antibody and the number of insulin-containing beta cells in the islets was estimated.

Compound | Effect on course of IDDM [1] | Toxicity when taken orally [2] | Success in preventing clinical diabetes [3] | Mice showing signs of clinical diabetes ([3]; 5 mg/mouse every other day, age 2 to 20 weeks, urine glucose 10 to 35 weeks, untreated 78%) | Prevention / recurrence of clinical diabetes (in words) ([3]; observed to 35 weeks, incl. 15 weeks after cessation of treatment) | Mean fasting blood glucose ([4]; fasting (8 hours), untreated diabetic 334±47) | Mean non-fasting blood glucose ([4]; non-fasting, untreated diabetic 342±45) | Pancreatic insulin / protection from beta cell destruction (in words) ([5]; NOD mice) | Pancreatic insulin level ([5]; about 25% of the maltol-treated mice) | Pancreatic insulin level ([5]; about 75% of the maltol-treated mice, majority of untreated less than 10 μg/g) | Percent inhibition of free radical production ([6]; 0.2 mM maltol) | Chemiluminescence ([6]; 0.2 mM maltol) | Percent inhibition of free radical production ([6]; 2.0 mM maltol) | Chemiluminescence ([6]; 2.0 mM maltol) | Percent inhibition of free radical production ([6]; 80 mM maltol) | Chemiluminescence ([6]; 80 mM maltol) | Lymphocytic infiltration of the pancreatic islets (in words) (pancreatic islets) | Destruction of pancreatic beta cells (in words) (pancreatic beta cells)
O=P1(N(CCCl)CCCl)NCCCO1 (stereo not shown) [cyclophosphamide] | did not alter the course of the disease | – | – | – | – | – | – | – | – | – | – | – | – | – | – | – | – | –
CCc1occc(=O)c1O [ethyl maltol] | – | very low toxicities when taken orally | – | – | – | – | – | – | – | – | – | – | – | – | – | – | – | –
Cc1occc(=O)c1O [maltol, 3-Hydroxy-2-methyl-4-pyrone] | – | very low toxicities when taken orally | 100% | 0% | can prevent clinical diabetes completely | 92 ± 17 mg/dL | 132 ± 19 mg/dL | substantial protection from beta cell destruction | 55-75 μg/g pancreas | over 80 μg/g pancreas | 60% | 4829.3 ± 792.1 cpm | 98% | 210. ± 55.1 cpm | 99.7% | 31.6 ± 3.1 cpm | much less lymphocytic infiltration of the pancreatic islets | significantly less destruction of pancreatic beta cells
